Data as given in article PMC3515654 (ChemMedChem, 2011).

Key:
[1] = target: D1-like dopamine receptors (Sus scrofa, UniProt P50130); format: binding; settings: porcine striatum; for Fold D1-like Selectivity: ratio of D2-like Ki to D1-like Ki
[2] = target: D2-like dopamine receptors (Sus scrofa, UniProt A0ACM8QMZ9); settings: porcine striatal binding, D1-like vs D2-like
[3] = pKa of synthetic acids, used for separation by titration; format: physicochemical

D1-like dopamine receptors, sequence (P50130 whole entry): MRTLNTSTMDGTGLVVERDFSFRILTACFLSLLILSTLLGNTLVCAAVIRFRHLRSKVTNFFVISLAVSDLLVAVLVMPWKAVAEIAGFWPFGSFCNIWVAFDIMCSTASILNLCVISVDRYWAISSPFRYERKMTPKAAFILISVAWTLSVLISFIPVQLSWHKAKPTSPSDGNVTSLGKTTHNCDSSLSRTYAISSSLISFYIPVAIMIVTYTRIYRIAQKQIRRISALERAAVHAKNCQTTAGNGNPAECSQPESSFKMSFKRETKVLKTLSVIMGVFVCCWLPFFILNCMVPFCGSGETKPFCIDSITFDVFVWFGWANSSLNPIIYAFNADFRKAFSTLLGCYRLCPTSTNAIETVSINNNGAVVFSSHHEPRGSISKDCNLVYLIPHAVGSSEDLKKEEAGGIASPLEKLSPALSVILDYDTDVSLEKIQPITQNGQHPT
D2-like dopamine receptors, sequence (A0ACM8QMZ9 1-443): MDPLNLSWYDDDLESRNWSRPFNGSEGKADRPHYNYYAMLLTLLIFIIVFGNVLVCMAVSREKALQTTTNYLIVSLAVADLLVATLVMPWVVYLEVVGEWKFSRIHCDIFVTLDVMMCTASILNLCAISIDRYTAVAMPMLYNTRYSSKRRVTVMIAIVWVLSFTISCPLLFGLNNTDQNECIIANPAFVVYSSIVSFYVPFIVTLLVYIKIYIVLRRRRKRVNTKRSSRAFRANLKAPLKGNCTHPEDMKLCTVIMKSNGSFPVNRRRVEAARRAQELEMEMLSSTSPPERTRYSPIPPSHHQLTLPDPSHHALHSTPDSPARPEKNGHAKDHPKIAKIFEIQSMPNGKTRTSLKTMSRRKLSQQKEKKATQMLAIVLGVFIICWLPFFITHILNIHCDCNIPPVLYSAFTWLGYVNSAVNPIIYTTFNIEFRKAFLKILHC

| Fold D1-like Selectivity [1] [fold] | Structure (SMILES) | also measured |
| --- | --- | --- |
| 480 | NC[C@@H]1O[C@H](C23CC4CC(CC(C4)C2)C3)Cc2c1ccc(O)c2O [1c, reference compound] |  |
| 92 | NC[C@@H]1O[C@H](c2ccccc2)Cc2c1ccc(O)c2O [1d, reference compound] |  |
|  | Cl.NCC1CCOc2c1ccc(O)c2O (stereo not drawn) [2a, 7,8-Dihydroxy-4-aminomethylchroman hydrochloride] | Receptor subtype selectivity [2]: selectivity for D2-like receptors |
|  | COc1cccc(C2OC(=O)CC2C(=O)O)c1OC (stereo not drawn) [compound 18, 2-(2,3-Dimethoxyphenyl)-5-oxo-tetrahydrofuran-3-carboxylic acid] | pKa [3]: ~3.6 |

| Structure (SMILES) | Fold D1-like Selectivity [1] [fold] | also measured |
| --- | --- | --- |
| Br.NC[C@H]1C[C@@H](C23CC4CC(CC(C4)C2)C3)Cc2c1ccc(O)c2O (relative stereo) [3c, Cis-5-(aminomethyl)-7-adamantyl-5,6,7,8-tetrahydronaphthalene-1,2-diol hydrobromide] | 55 | Fold higher binding affinity at D1-like receptors compared to 2c ([1]; relative to 2c): ~20 fold |
